From ChEMBL document CHEMBL1777711, “Synthesis and bioactivity of new Finasteride conjugate” (Bioorg Med Chem Lett, 2011)
Active and inactive are the calls of the source. The calls are words filed in the database; no cut-off is given here.

What was measured:
Rattus norvegicus [1] = experiment: Inhibition of testosterone propionate-induced castrated Wistar rat benign prostatic hyperplasia model assessed as decrease in prostate weight at 10 mg/kg, iv for 14 days; format: functional, organism-based; set-up: dose 10 mg/kg; settings: Wister, Prostate gland
Rattus norvegicus [2] = experiment: Inhibition of testosterone propionate-induced castrated Wistar rat benign prostatic hyperplasia model assessed as decrease in seminal vesicles weight at 10 mg/kg, iv for 14 days; format: functional, organism-based; set-up: dose 10 mg/kg; settings: Wister
[3] = biological target: T1, 3-oxo-5-alpha-steroid 4-dehydrogenase 2 (Rattus norvegicus, UniProt P31214); experiment: Inhibition of rat 5-alpha-reductase type 2 by Lineweaver-Burk plot
T1 sequence (P31214 whole entry): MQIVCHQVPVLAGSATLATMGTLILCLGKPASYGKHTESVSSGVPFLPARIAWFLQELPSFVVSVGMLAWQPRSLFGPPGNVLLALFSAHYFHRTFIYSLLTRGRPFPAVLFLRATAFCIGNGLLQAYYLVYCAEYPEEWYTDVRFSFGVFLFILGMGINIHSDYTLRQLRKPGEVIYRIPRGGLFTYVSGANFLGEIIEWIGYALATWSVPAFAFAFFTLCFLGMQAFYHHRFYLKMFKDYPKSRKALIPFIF

Rattus norvegicus [4] = experiment: Toxicity in testosterone propionate-induced castrated Wistar rat benign prostatic hyperplasia model assessed as body weight at 2 to 50 mg/kg, iv for 14 days; format: organism-based, Wister; set-up: dose 2-50 mg/kg, route intravenous; settings: in vivo, 336 h
Rattus norvegicus [5] = experiment: Inhibition of testosterone propionate-induced castrated Wistar rat benign prostatic hyperplasia model assessed as decrease in prostate weight at 2 mg/kg, iv for 14 days; format: functional, organism-based; set-up: dose 2 mg/kg; settings: Wister, Prostate gland
Rattus norvegicus [6] = experiment: Inhibition of testosterone propionate-induced castrated Wistar rat benign prostatic hyperplasia model assessed as decrease in seminal vesicles weight at 2 mg/kg, iv for 14 days; format: functional, organism-based; set-up: dose 2 mg/kg; settings: Wister
Rattus norvegicus [7] = experiment: Inhibition of testosterone propionate-induced castrated Wistar rat benign prostatic hyperplasia model assessed as decrease in prostate weight at 50 mg/kg, iv for 14 days; format: functional, organism-based; set-up: dose 50 mg/kg; settings: Wister, Prostate gland
Rattus norvegicus [8] = experiment: Inhibition of testosterone propionate-induced castrated Wistar rat benign prostatic hyperplasia model assessed as decrease in seminal vesicles weight at 50 mg/kg, iv for 14 days; format: functional, organism-based; set-up: dose 50 mg/kg; settings: Wister
Rattus norvegicus [9] = experiment: Inhibition of testosterone propionate-induced castrated Wistar rat benign prostatic hyperplasia model assessed as prostate gland arrangement order at 10 mg/kg, iv by histochemistry; format: functional, organism-based; set-up: dose 10 mg/kg; settings: Wister
Rattus norvegicus [10] = experiment: Inhibition of testosterone propionate-induced castrated Wistar rat benign prostatic hyperplasia model assessed as decrease in pseudostratified epithelia at 10 mg/kg, iv by histochemistry; format: functional, organism-based; set-up: dose 10 mg/kg; settings: Wister
Rattus norvegicus [11] = experiment: Inhibition of testosterone propionate-induced castrated Wistar rat benign prostatic hyperplasia model assessed as decrease in epithelial protrusions at 10 mg/kg, iv by histochemistry; format: functional, organism-based; set-up: dose 10 mg/kg; settings: Wister
Rattus norvegicus [12] = experiment: Inhibition of testosterone propionate-induced castrated Wistar rat benign prostatic hyperplasia model assessed as decrease in hyperplasia of interstitial tissues at 10 mg/kg, iv by histochemistry; format: functional, organism-based; set-up: dose 10 mg/kg; settings: Wister
Rattus norvegicus [13] = experiment: Toxicity in testosterone propionate-induced castrated Wistar rat benign prostatic hyperplasia model assessed as vital signs at 10 mg/kg, iv […]; format: organism-based, Wister; set-up: dose 10 mg/kg, route intravenous; settings: in vivo

With CC(C)(C)N(C(=O)C1CSCN1C(=O)C1CCC(=O)N1)C(=O)[C@H]1CC[C@H]2[C@@H]3CC[C@H]4NC(=O)C=C[C@]4(C)[C@H]3CC[C@]12C (stereo partly specified) the inhibition (Rattus norvegicus [1]) was “Active”, the inhibition (Rattus norvegicus [2]) was “Active” and the IC50 [3] was 88 nM. For the same molecule, the Activity (Rattus norvegicus [4]) was “Non-toxic”, the inhibition (Rattus norvegicus [5]) was “Active” and the inhibition (Rattus norvegicus [6]) was “Active”. For the same molecule, the inhibition (Rattus norvegicus [7]) was “Active”, the inhibition (Rattus norvegicus [8]) was “Active” and the inhibition (Rattus norvegicus [9]) was “Active”. For the same molecule, the inhibition (Rattus norvegicus [10]) was “Active”, the inhibition (Rattus norvegicus [11]) was “Active” and the inhibition (Rattus norvegicus [12]) was “Active”. The Activity (Rattus norvegicus [13]) was “Non-toxic”.

In the case of CC(C)(C)NC(=O)[C@H]1CC[C@H]2[C@@H]3CC[C@H]4NC(=O)C=C[C@]4(C)[C@H]3CC[C@]12C [FINASTERIDE], the inhibition (Rattus norvegicus [1]) is reported as “Active”, the inhibition (Rattus norvegicus [2]) is reported as “Active” and the IC50 [3] is reported as 147 nM. For the same molecule, the Activity (Rattus norvegicus [4]) was “Non-toxic”, the inhibition (Rattus norvegicus [9]) was “Active” and the inhibition (Rattus norvegicus [10]) was “Active”. For the same molecule, the inhibition (Rattus norvegicus [11]) was “Active” and the inhibition (Rattus norvegicus [12]) was “Active”.
